SMILES strings stand for the structures.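 Following 48 hours of exposure in 96-well plates, responses at five concentrations were used to interpolate endpoints linearly. GI50 marks 50% less growth. Definition used: TGI = concentration required for complete inhibition of growth.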

Test systems include OVCAR-4 ovarian; SR leukemia; SK-MEL-5 melanoma; OVCAR-3 ovarian; HCC-2998 colon; HS 578T breast; SF-539 CNS; NCI-H226 lung; ACHN renal; RXF 393 renal.
Assay in all cases: NCI-60 cell line screen, 48 h

In the case of `Cc1c2cccc-2c2cc(O)c3ccccc3c2n1-c1ccc(N(C)C)cc1`, the TGI amounted to 12.1 µM in the test with OVCAR-4 ovarian; 26.4 µM in the test on SR leukemia; 24.1 µM with SK-MEL-5 melanoma; 19.1 µM in the test with OVCAR-3 ovarian; 35.1 µM in the test on HCC-2998 colon; 37.5 µM in the test with HS 578T breast. Besides, the results for the TGI in the test on SF-539 CNS, in the test on NCI-H226 lung and with ACHN renal were 27.9 µM, 24.4 µM and 24.9 µM, respectively.
Take `OCc1cn(Cc2ccccc2)c2ccccc12`: the TGI was over 100 µM in the test with SR leukemia; over 47.2 µM with SK-MEL-5 melanoma; 6.96 µM with OVCAR-3 ovarian; 30.4 µM in the test with HS 578T breast; 4.53 µM with RXF 393 renal; over 69 µM with SF-539 CNS. Moreover, the values for the TGI in the test on NCI-H226 lung and in the test on ACHN renal were 0.123 µM and over 58.2 µM, respectively.
`CN(CCN1CCCC1)C1CCc2cc(Cl)c(Cl)cc2C1` (stereo unspecified): the TGI in the test with OVCAR-4 ovarian is 51.1 µM; with SR leukemia, 74.5 µM; in the test on SK-MEL-5 melanoma it was 24.8 µM; in the test with OVCAR-3 ovarian it was 32.1 µM; with HCC-2998 colon, 18.2 µM; in the test on HS 578T breast, 56.2 µM. Further, the TGI with SF-539 CNS is 31.4 µM; with NCI-H226 lung, 34.8 µM; with ACHN renal, 30.5 µM.
Consider `c1ccc(-c2c(-c3ccccc3)[n+](Cc3ccc4ccccc4c3)c(-c3ccc(-c4nc5ccccc5s4)cc3)n2Cc2ccc3ccccc3c2)cc1`, for which the GI50 was 0.0486 µM in the test on OVCAR-4 ovarian; 0.14 µM in the test on SR leukemia; 0.0814 µM in the test on OVCAR-3 ovarian; 0.244 µM with HCC-2998 colon; 0.296 µM with HS 578T breast; 0.305 µM in the test on SF-539 CNS. The GI50 in the test with ACHN renal was 0.178 µM. Also, the TGI came to 1.12 µM in the test on OVCAR-4 ovarian; 0.756 µM in the test on SR leukemia; 0.626 µM in the test on OVCAR-3 ovarian; 1.01 µM in the test on HCC-2998 colon; 1.41 µM in the test with HS 578T breast; 1.24 µM in the test on SF-539 CNS. This compound also came in with a TGI with ACHN renal of 0.378 µM.
As for `COc1cccc(C2c3cc4c(cc3OC(O)C2C)OCO4)c1OC` (stereo unspecified), the TGI with SR leukemia amounted to 11.3 µM; with SK-MEL-5 melanoma it was 21.8 µM; with OVCAR-3 ovarian, 17.9 µM; in the test on HCC-2998 colon it was 46 µM; in the test on HS 578T breast it was 32.8 µM; with RXF 393 renal it was 23.5 µM. Also, the TGI in the test on SF-539 CNS turned out to be 26.8 µM; in the test with NCI-H226 lung it was 24.8 µM; in the test with ACHN renal it was 30.8 µM.
For `C[C@@H]1CC[C@@]2(C)C(C(=O)O)=CCCC2[C@@]1(C)CC(=O)c1ccoc1` (stereo partly specified), the TGI in the test with OVCAR-4 ovarian, in the test on SR leukemia, in the test on SK-MEL-5 melanoma, with OVCAR-3 ovarian, in the test with HS 578T breast and in the test with RXF 393 renal was over 25 µM throughout. Besides, the TGI in the test with SF-539 CNS, in the test with NCI-H226 lung and in the test with ACHN renal was over 25 µM throughout.
Turning to `COc1ccc(C2Oc3ccc(Cl)cc3C=C2[N+](=O)[O-])cc1` (stereo unspecified), the TGI in the test with OVCAR-4 ovarian, in the test on SR leukemia, with SK-MEL-5 melanoma, in the test with OVCAR-3 ovarian, with HS 578T breast and in the test with RXF 393 renal was over 100 µM in each case. This compound also registered a TGI in the test on ACHN renal of over 100 µM.
Turning to `CCOC(=O)/C=C/c1nc(C#N)c(N)o1`, the TGI in the test with SR leukemia, in the test on SK-MEL-5 melanoma, in the test on HS 578T breast, with RXF 393 renal and in the test with ACHN renal was over 100 µM each time.
Turning to `CN(/N=C1\C(=O)Nc2ccccc21)c1ccccc1`, the TGI in the test with OVCAR-4 ovarian, in the test with SR leukemia, in the test with SK-MEL-5 melanoma, in the test with OVCAR-3 ovarian, with HCC-2998 colon and in the test with HS 578T breast was over 100 µM each time. Moreover, the TGI in the test on SF-539 CNS, with NCI-H226 lung and in the test with ACHN renal was over 100 µM throughout.
`Cc1ccccc1-c1nc2c(N)nc(N)nc2nc1N`: the TGI in the test with OVCAR-4 ovarian, in the test on SR leukemia, in the test on SK-MEL-5 melanoma, in the test with OVCAR-3 ovarian, in the test with HCC-2998 colon and with HS 578T breast was over 100 µM in each case. In addition, the TGI with SF-539 CNS and in the test on ACHN renal was over 100 µM throughout.
Turning to `CC(=O)O[C@@H](c1nccn1Cc1ccccc1)[C@H]1OC(C)(C)O[C@@H]1[C@H]1COC(C)(C)O1`, the TGI with OVCAR-4 ovarian, in the test on SK-MEL-5 melanoma, in the test on OVCAR-3 ovarian, in the test on HCC-2998 colon, with HS 578T breast and in the test with RXF 393 renal was over 100 µM in each case. Moreover, the TGI in the test on SF-539 CNS, in the test with NCI-H226 lung and with ACHN renal was over 100 µM each time.
Regarding `COc1ccc2c(c1)c1c(n2CCN2CCCCC2)-c2cccc(OC)c2CC1`, the TGI is over 100 µM with OVCAR-4 ovarian; 44.7 µM in the test with SR leukemia; 45.5 µM with SK-MEL-5 melanoma; 34.5 µM in the test on OVCAR-3 ovarian; 36.4 µM with HCC-2998 colon; 42.4 µM in the test on HS 578T breast. Further, the TGI in the test with NCI-H226 lung came out at 24.1 µM; in the test with ACHN renal, 43 µM.
As for `Cc1nc(N)c(N2CCN(C#N)CC2)c(=O)[nH]1`, the TGI with SR leukemia, in the test with OVCAR-3 ovarian, in the test with HCC-2998 colon, in the test on HS 578T breast, in the test with SF-539 CNS and with NCI-H226 lung was over 100 µM throughout. Moreover, the TGI in the test with ACHN renal was over 100 µM.

The record behind these values is PubChem BioAssay (NCI).
